Consider three compounds from patent US4394504A, “Cephalosporin derivatives” (American Home Products Corporation, priority 1981, dated 1983).

Converted amounts (≈) assume the structure as drawn. Read-outs that look alike come from different tables or passages of the source.

Test [1] has as its system Proteus mirablis (PR MI), strain 9921. Nature of the test: Microdilution tube dilution assay MIC, Proteus mirablis 9921. The class given is cell-based. The text has this:
(§1) The following examples are presented for purposes of illustration and should not be construed as limitations upon the true scope of this invention.
(§2) The product of Example 18 was reexamined by the microdilution method of tube dilution assay employing Mueller Hinton Broth whereby standardized cultures were introduced into serially diluted antibiotic from Example 18.
(In general: In broth dilution the organism is exposed to a series of concentrations in liquid medium.)

In test [2] the test system is Staphylococcus aureus (ST AU), strain 53-180. Nature of the test: Microdilution tube dilution assay MIC, Staphylococcus aureus 53-180. The class given is cell-based. Particulars: Mueller Hinton Broth, ST AU 53-180.
Excerpt: as §1
(§3) ST AU--Staphylococcus aureus,
as §2

Test [3] has as its system Salmonella paratyphi (SA PA), strain 11737. Nature of the test: Microdilution tube dilution assay MIC, Salmonella paratyphi 11737. Particulars: Salmonella enterica. The class given is cell-based.
Test [4] relates to Proteus vulgaris (PR VU), strain 6896. Nature of the test: Microdilution tube dilution assay MIC, Proteus vulgaris 6896. The settings on record: Mueller Hinton Broth, PR VU 6896. Format: cell-based.
Excerpt: as §1, §2

In test [5] the test system is Staphylococcus aureus (ST AU), strain CHP. Nature of the test: Microdilution tube dilution assay MIC, Staphylococcus aureus CHP. The class given is cell-based. The settings on record: Mueller Hinton Broth.
Excerpt: as §1, §3, §2

Test [6] deals with Staphylococcus aureus (ST AU), strain SMITH. Description: Microdilution tube dilution assay MIC, Staphylococcus aureus SMITH. The class given is cell-based. The settings on record: Mueller Hinton Broth.
Excerpt: as §1, §3, §2

Test [7] relates to Staphylococcus aureus (ST AU), strain 209P. Nature of the test: Microdilution tube dilution assay MIC, Staphylococcus aureus 209P. The class given is cell-based.
Excerpt: as §1, §3, §2

Test [8] has as its system Bacillus subtilis (BA SU), strain 6633. Description: Microdilution tube dilution assay MIC, Bacillus subtilis 6633. Format: cell-based.
Excerpt: as §1
BA SU--Bacillus subtilis,
as §2

The subject of test [9] is Escherichia coli (ES CO), strain 9637. Nature of the test: Microdilution tube dilution assay MIC, Escherichia coli 9637. The class given is cell-based. The settings on record: Mueller Hinton Broth, ES CO 9637.
Excerpt: as §1, §2

The test system of test [10] is Pseudomonas aeruginosa (PS AE), strain 10145. Nature of the test: Microdilution tube dilution assay MIC, Pseudomonas aeruginosa 10145. Format: cell-based. Particulars: Mueller Hinton Broth, PS AE 10145.
Excerpt: as §1
PS AE--Pseudomonas aeruginosa,
as §2

Test [11] has as its system ES IN, strain 65-1. Description: Microdilution tube dilution assay MIC, ES IN 65-1. Format: cell-based, Escherichia intermedia. Particulars: Citrobacter intermedius.
Excerpt: as §1
ES IM--Escherichia intermedia.
as §2

The subject of test [12] is Klebsiella pneumoniae (KL PN), strain 10031. Description: Microdilution tube dilution assay MIC, Klebsiella pneumoniae 10031. The class given is cell-based. The settings on record: Mueller Hinton Broth, KL PN 10031.
Excerpt: as §1
KL PN--Klebsiella pneumoniae,
as §2

In test [13] the test system is Enterobacter aerogenes (EN AE), strain 13048. Nature of the test: Microdilution tube dilution assay MIC, Enterobacter aerogenes 13048. Format: cell-based. The settings on record: Klebsiella aerogenes.
Excerpt: as §1
EN AE--Enterobacter aerogenes,
as §2

Test [14] deals with Herellea species (HE SP), strain 9955. Description: Microdilution tube dilution assay MIC, Herellea species 9955. Format: cell-based. Particulars: Mueller Hinton Broth, HE SP 9955.
Excerpt: as §1, §2

The test system of test [15] is Bordetella brochiseptica (BO BR), strain 4617. Nature of the test: Microdilution tube dilution assay MIC, Bordetella brochiseptica 4617. The class given is cell-based. Particulars: Mueller Hinton Broth, BO BR 4617.
Excerpt: as §1
BO BR--Bordetella brochiseptica,
as §2

For test [16], the system named is Staphylococcus aureus (ST AU), strain 53-180. Nature of the test: Agar serial dilution MIC, Staphylococcus aureus 53-180. Format: cell-based.
Excerpt: (§4) The antibacterial compounds of this invention are effective against gram-positive and gram-negative test organisms at inhibitory concentrations at or below 250 micrograms per milliliter using the well-known and scientifically accepted agar serial dilution technique. Thus, the antibacterial agents of this invention are useful in the fields of comparative pharmacology and microbiology and may be used in the treatment of infections amenable to treatment with cephalosporins and penicillins such as bovine mastitis as well as in the eradication of bacterial colonies outside the animal host.
as §1
(§5) ST AU--Staphylococcus aureus, […]

The subject of test [17] is Bacillus subtilis (BA SU), strain 6633. Description: Agar serial dilution MIC, Bacillus subtilis 6633. Format: cell-based.
Excerpt: as §4, §1
BA SU--Bacillus subtilis, […]

Test [18] relates to Enterobacter cloacae (EN CL), strain 65-1. Nature of the test: Agar serial dilution MIC, Enterobacter cloacae 65-1. The class given is cell-based. The settings on record: EN CL 65-1.
Excerpt: as §4, §1
EN CL--Enterobacter cloacae, […]

Test [19] concerns Staphylococcus aureus (ST AU), strain CHP. Description: Agar serial dilution MIC, Staphylococcus aureus CHP. Format: cell-based.
Excerpt: as §4, §1, §5

Test [20] has as its system Proteus mirablis (PR MI), strain 9921. Nature of the test: Agar serial dilution MIC, Proteus mirablis 9921. Format: cell-based.
Excerpt: as §4, §1

The subject of test [21] is Proteus vulgaris (PR VU), strain 6896. Nature of the test: Agar serial dilution MIC, Proteus vulgaris 6896. Format: cell-based.
Excerpt: as §4, §1

Test [22] deals with Salmonella paratyphi (SA PA), strain 11737. Nature of the test: Agar serial dilution MIC, Salmonella paratyphi 11737. Format: cell-based. Particulars: Salmonella enterica.
Excerpt: as §4, §1
SA PA--Salmonella paratyphi, […]

Test [23] has as its system Escherichia coli (ES CO), strain 9637. Nature of the test: Agar serial dilution MIC, Escherichia coli 9637. Format: cell-based. Particulars: ES CO 9637.
Excerpt: as §4, §1

In test [24] the test system is Enterobacter aerogenes (EN AE), strain 13048. Nature of the test: Agar serial dilution MIC, Enterobacter aerogenes 13048. Format: cell-based. The settings on record: Klebsiella aerogenes, EN AE 13048.
Excerpt: as §4, §1
EN AE--Enterobacter aerogenes, […]

For test [25], the system named is Klebsiella pneumoniae (KL PN), strain 10031. Nature of the test: Agar serial dilution MIC, Klebsiella pneumoniae 10031. The settings on record: KL PN 10031. Format: cell-based.
Excerpt: as §4, §1
KL PN--Klebsiella pneumoniae, […]

In test [26] the test system is Staphylococcus aureus (ST AU), strain 6538P. Nature of the test: Agar serial dilution MIC, Staphylococcus aureus 6538P. The class given is cell-based. Particulars: ST AU 6538P.
Excerpt: as §4, §1, §5

Test [27] has as its system Staphylococcus aureus (ST AU), strain SMITH. Nature of the test: Agar serial dilution MIC, Staphylococcus aureus SMITH. The class given is cell-based.
Excerpt: as §4, §1, §5

For test [28], the system named is Bordetella brochiseptica (BO BR), strain 4617. Nature of the test: Agar serial dilution MIC, Bordetella brochiseptica 4617. The settings on record: BO BR 4617. The class given is cell-based.
Excerpt: as §4, §1
BO BR--Bordetella brochiseptica, […]

Test [29] concerns AC CA, strain 9955. Description: Agar serial dilution MIC, AC CA 9955. Format: cell-based.
Excerpt: as §4, §1

The term MIC denotes the smallest concentration in the dilution series that meets the test's criterion for growth inhibition. For `CO/N=C(\C(=O)N[C@@H]1C(=O)N2C(C(=O)O)=C(COC(C)=O)CS[C@H]12)c1csc(N)n1` [Cefotaxime, reference compound], the MIC in test [1] was 0.0019 µg/mL (≈ 0.00417 µM); in test [2], 0.976 µg/mL (≈ 2.14 µM); in test [3] it was 0.0076 µg/mL (≈ 0.0167 µM); in test [4], 0.00023 µg/mL (≈ 0.000505 µM); in test [5] it was 3.9 µg/mL (≈ 8.56 µM); in test [6], 0.244 µg/mL (≈ 0.536 µM). For the same compound, the MIC in test [7] (209P) came out at 0.488 µg/mL (≈ 1.07 µM); in [8], 0.488 µg/mL (≈ 1.07 µM); in test [9] it was 0.0038 µg/mL (≈ 0.00834 µM); in test [10], 3.9 µg/mL (≈ 8.56 µM); in [11] (microdilution, Mueller Hinton Broth, ES IN 65-1, read-out: MIC) it was 0.0038 µg/mL (≈ 0.00834 µM); in [12], 0.06 ng/mL (≈ 0.000132 µM). The minimal inhibitory concentration (MIC) turned out to be 0.0152 µg/mL (≈ 0.0334 µM) in test [13] (microdilution, Mueller Hinton Broth, EN AE 13048, read-out: MIC); 15.6 µg/mL (≈ 34.3 µM) in test [14]; 15.6 µg/mL (≈ 34.3 µM) in test [15].
For the compound `CO/N=C(/C(=O)NC1C(=O)N2C(C(=O)O)=C(COC(C)=O)CSC12)c1cc(N)no1` (stereo not drawn) [Example 15, 3-Acetoxymethyl-7-[2-(3-Amino-5-Isoxazolyl)-2-anti-Methoxyiminoacetamido]-Ceph-3-em-4-Carboxylic Acid], the MIC in test [16] was 15.6 µg/mL (≈ 35.5 µM); in test [17] (agar serial dilution, BA SU 6633, read-out: MIC), 7.81 µg/mL (≈ 17.8 µM); in [18], 62.5 µg/mL (≈ 142 µM); in [19] it was 15.6 µg/mL (≈ 35.5 µM); in [20] (agar serial dilution, PR MI 9921, read-out: MIC), 7.81 µg/mL (≈ 17.8 µM); in [21] (agar serial dilution, PR VU 6896, read-out: MIC), 31.3 µg/mL (≈ 71.2 µM). Besides, the MIC in test [22] was determined as 15.6 µg/mL (≈ 35.5 µM); in test [23], 15.6 µg/mL (≈ 35.5 µM); in test [24], 62.5 µg/mL (≈ 142 µM); in test [25] it was 15.6 µg/mL (≈ 35.5 µM); in test [26], 7.81 µg/mL (≈ 17.8 µM); in test [27] (agar serial dilution, ST AU SMITH, read-out: MIC), 3.9 µg/mL (≈ 8.88 µM).
As to `CO/N=C(\C(=O)NC1C(=O)N2C(C(=O)O)=C(COC(C)=O)CSC12)c1cc(N)no1` (stereo not drawn) [Example 18, 3-Acetoxymethyl-7-[2-(3-Amino-5-Isoxazolyl)-2-syn-Methoxy-Iminoacetamido]-Ceph-3-em-4-Carboxylic Acid], the minimum inhibitory concentration (MIC) came to 0.122 µg/mL (≈ 0.278 µM) in [1] (microdilution, Mueller Hinton Broth, PR MI 9921, read-out: MIC); 3.9 µg/mL (≈ 8.88 µM) in [16] (agar serial dilution, ST AU 53-180, read-out: MIC); 0.488 µg/mL (≈ 1.11 µM) in test [17]; 0.488 µg/mL (≈ 1.11 µM) in test [2]; 0.488 µg/mL (≈ 1.11 µM) in [3]; 0.122 µg/mL (≈ 0.278 µM) in test [4]. Further, the MIC in test [28] worked out at 250 µg/mL (≈ 569 µM); in test [18] it was 1.95 µg/mL (≈ 4.44 µM); in [19] (agar serial dilution, ST AU CHP, read-out: MIC) it was 7.81 µg/mL (≈ 17.8 µM); in test [20], 0.488 µg/mL (≈ 1.11 µM); in test [21], 0.976 µg/mL (≈ 2.22 µM); in test [5] it was 3.9 µg/mL (≈ 8.88 µM). Further, the MIC in test [6] worked out at 0.244 µg/mL (≈ 0.555 µM); in [7] (microdilution, Mueller Hinton Broth, ST AU 209P, read-out: MIC) it was 0.244 µg/mL (≈ 0.555 µM); in test [8] (microdilution, Mueller Hinton Broth, BA SU 6633, read-out: MIC), 1.95 µg/mL (≈ 4.44 µM); in [22], 0.488 µg/mL (≈ 1.11 µM); in [9] it was 0.122 µg/mL (≈ 0.278 µM); in test [23] it was 0.488 µg/mL (≈ 1.11 µM). The minimal inhibitory concentration (MIC) in test [24] turned out to be 31.3 µg/mL (≈ 71.2 µM); in test [25] it was 0.488 µg/mL (≈ 1.11 µM); in [10], 125 µg/mL (≈ 284 µM); in test [11], 0.488 µg/mL (≈ 1.11 µM); in test [12] it was 15.2 ng/mL (≈ 0.0346 µM); in test [26], 1.95 µg/mL (≈ 4.44 µM). In addition, the MIC is 0.976 µg/mL (≈ 2.22 µM) in test [13]; 0.488 µg/mL (≈ 1.11 µM) in test [27]; 62.5 µg/mL (≈ 142 µM) in test [14]; 125 µg/mL (≈ 284 µM) in test [15]; 125 µg/mL (≈ 284 µM) in [29].
